Experimental data taken from patent publication US9440952B2, “Compounds inhibiting leucine-rich repeat kinase enzyme activity” (Merck Sharp & Dohme Corp., priority 2013, dated 2016).
Like-named read-outs stand apart in the source and are kept apart here.

Molecular target: T1, LRRK2(G2019S mutation, GST-LRRK2(amino acids 970-2527)) (Homo sapiens, UniProt Q5S007, G2019S)
T1 construct: GST-LRRK2(amino acids 970-2527); GST (N); purchased Life Technologies Corporation
Assay: LRRK2 Km ATP LanthaScreen Assay
Type: biochemical
Details: read-out: LRRK2 IC50
In short: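 IC50 values are means of several runs in the Km-ATP LanthaScreen format, analysed by curve fitting of the LanthaScreen read-out.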

[1] = Km ATP LanthaScreen, mean IC50 of several tests
[2] = Km ATP LanthaScreen Assay, LRRK2 G2019S, mean IC50 values

T1 sequence (Q5S007 970-2527 G2019S): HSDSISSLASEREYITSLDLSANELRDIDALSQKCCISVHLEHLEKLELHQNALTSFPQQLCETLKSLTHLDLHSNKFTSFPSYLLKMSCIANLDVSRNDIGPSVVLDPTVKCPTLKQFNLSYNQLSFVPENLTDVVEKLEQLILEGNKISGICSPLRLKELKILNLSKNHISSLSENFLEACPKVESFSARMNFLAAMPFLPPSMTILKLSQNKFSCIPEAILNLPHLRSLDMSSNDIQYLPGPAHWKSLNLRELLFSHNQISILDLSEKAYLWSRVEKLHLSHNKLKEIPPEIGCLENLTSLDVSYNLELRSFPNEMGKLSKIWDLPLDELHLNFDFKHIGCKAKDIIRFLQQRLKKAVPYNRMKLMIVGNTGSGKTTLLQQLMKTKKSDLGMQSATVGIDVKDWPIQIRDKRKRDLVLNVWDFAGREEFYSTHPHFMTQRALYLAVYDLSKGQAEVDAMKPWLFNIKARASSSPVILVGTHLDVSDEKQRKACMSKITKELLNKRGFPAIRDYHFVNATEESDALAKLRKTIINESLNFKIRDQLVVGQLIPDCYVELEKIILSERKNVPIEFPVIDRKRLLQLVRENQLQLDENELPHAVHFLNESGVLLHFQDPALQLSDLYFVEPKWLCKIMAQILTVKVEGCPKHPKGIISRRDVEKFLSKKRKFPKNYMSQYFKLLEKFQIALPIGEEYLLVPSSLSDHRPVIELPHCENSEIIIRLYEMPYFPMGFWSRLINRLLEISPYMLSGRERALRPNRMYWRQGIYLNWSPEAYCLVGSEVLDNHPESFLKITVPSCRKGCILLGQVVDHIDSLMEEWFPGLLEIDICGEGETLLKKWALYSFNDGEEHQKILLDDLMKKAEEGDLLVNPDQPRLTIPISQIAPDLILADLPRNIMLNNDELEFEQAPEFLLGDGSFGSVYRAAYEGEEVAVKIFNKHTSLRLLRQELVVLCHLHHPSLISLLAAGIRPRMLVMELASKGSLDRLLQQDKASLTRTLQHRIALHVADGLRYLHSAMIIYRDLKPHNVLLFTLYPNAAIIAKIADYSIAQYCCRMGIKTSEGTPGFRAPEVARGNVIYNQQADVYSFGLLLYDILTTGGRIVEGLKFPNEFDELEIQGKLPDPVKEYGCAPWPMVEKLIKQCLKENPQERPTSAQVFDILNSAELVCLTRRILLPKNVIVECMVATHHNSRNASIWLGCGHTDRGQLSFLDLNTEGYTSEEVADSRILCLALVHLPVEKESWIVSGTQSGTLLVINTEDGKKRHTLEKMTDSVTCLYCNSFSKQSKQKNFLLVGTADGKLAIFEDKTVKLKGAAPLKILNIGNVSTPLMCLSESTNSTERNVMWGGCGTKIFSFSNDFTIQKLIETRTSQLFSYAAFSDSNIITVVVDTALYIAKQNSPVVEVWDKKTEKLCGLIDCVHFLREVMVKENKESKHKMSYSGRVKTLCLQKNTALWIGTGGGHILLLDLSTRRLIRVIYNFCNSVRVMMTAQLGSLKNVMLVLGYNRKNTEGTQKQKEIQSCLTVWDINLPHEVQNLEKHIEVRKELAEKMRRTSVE

Compound | IC50 [1] | IC50 [2]
Cn1cc(-c2ccc3[nH]nc(-c4ccnc(N5CCN(CCO)CC5)c4)c3c2)cn1 [Example 265] | 1.7 nM | –
Cn1cc(-c2ccc3[nH]nc(-c4ccnc(N5CCCCC5)c4)c3c2)cn1 [Example 266] | 2.4 nM | –
Cn1cc(-c2ccc3[nH]nc(-c4ccnc(N5CCCC5)c4)c3c2)cn1 [Example 267] | 2.9 nM | –
CO[C@H]1CN(c2cc(-c3n[nH]c4ccc(-c5cnn(C)c5)cc34)ccn2)C[C@@H]1O [Example 269] | 4.2 nM | –
Cn1cc(-c2ccc3[nH]nc(-c4ccnc(N5CCC(n6cncn6)CC5)c4)c3c2)cn1 [Example 270] | 2.2 nM | –
Cn1cc(-c2ccc3[nH]nc(-c4ccnc(N5C[C@H](F)[C@@H](F)C5)c4)c3c2)cn1 [Example 271] | 2.2 nM | –
Cn1cc(-c2ccc3[nH]nc(-c4ccnc(N5CCc6oc(C7CC7)nc6C5)c4)c3c2)cn1 [Example 272] | 5.8 nM | –
Cn1cc(-c2ccc3[nH]nc(-c4ccnc(N5CCC(F)(F)CC5)c4)c3c2)cn1 [Example 273] | 3 nM | –
Cn1cc(-c2ccc3[nH]nc(-c4ccnc(N5CC(F)(F)C5)c4)c3c2)cn1 [Example 274] | 4.2 nM | –
Cc1noc(C2CN(c3cc(-c4n[nH]c5ccc(-c6cnn(C)c6)cc45)ccn3)C2)n1 [Example 275] | 5.6 nM | –
Cn1cc(-c2ccc3[nH]nc(-c4ccnc(N5CCN(c6nnc(C7CC7)o6)CC5)c4)c3c2)cn1 [Example 276] | 2.7 nM | –
Cn1cc(-c2ccc3[nH]nc(-c4ccnc(N5CCN(c6ccncn6)CC5)c4)c3c2)cn1 [Example 277] | 2.1 nM | –
Cn1cc(-c2ccc3[nH]nc(-c4ccnc(N5CC[C@H](F)C5)c4)c3c2)cn1 [Example 278] | 1.9 nM | –
CN1CCN(c2cc(-c3n[nH]c4ccc(-c5cnn(C)c5)cc34)ccn2)CC1=O [Example 279] | 2.9 nM | –
CC(C)Oc1ccc2[nH]nc(-c3ccnc(N4CC5CCC(C4)O5)c3)c2c1 [Example 280] | 5 nM | –
[2H]C1([2H])OC([2H])([2H])C([2H])([2H])N(c2cc(-c3n[nH]c4ccc(OC(C)C)cc34)ccn2)C1([2H])[2H] [Example 281] | – | 1.4 nM
CC(C)Oc1ccc2[nH]nc(-c3ccnc(N4C5CCC4COC5)c3)c2c1 [Example 282] | – | 7.7 nM

Compound | IC50 [1] | IC50 [2]
CC(C)Oc1ccc2[nH]nc(-c3ccnc(N4CC5(COC5)C4)c3)c2c1 [Example 283] | 5.9 nM | –
CC(C)Oc1ccc2[nH]nc(-c3ccnc(N4CC(C(=O)O)C4)c3)c2c1 [Example 284] | 2.4 nM | –
CC(C)Oc1ccc2[nH]nc(-c3ccnc(N4CCC(F)(F)C4)c3)c2c1 [Example 286] | 5.5 nM | –
CC(C)Oc1ccc2[nH]nc(-c3ccnc(N4CCC(F)(F)CC4)c3)c2c1 [Example 287] | 14 nM | –
CCOc1ccc2[nH]nc(-c3ccnc(N4CCC(F)(F)CC4)c3)c2c1 [Example 288] | 22 nM | –
COC1CCN(c2cc(-c3n[nH]c4ccc(OC(C)C)cc34)ccn2)CC1 [Example 290] | 6 nM | –
CCC(C)Oc1ccc2[nH]nc(-c3ccnc(N4CCOCC4)c3)c2c1 (stereo not drawn) [Example 291] | 2.2 nM | –
COCCNc1cc(-c2n[nH]c3ccc(OC(C)C)cc23)ccn1 [Example 292] | 5.9 nM | –
CCCOc1ccc2[nH]nc(-c3ccnc(N4CCN(C)C(=O)C4)c3)c2c1 [Example 293] | 15 nM | –
CCCOc1ccc2[nH]nc(-c3ccnc(N4CCN(C)CC4)c3)c2c1 [Example 294] | 17 nM | –
CCCOc1ccc2[nH]nc(-c3ccnc(N4CCN(S(C)(=O)=O)CC4)c3)c2c1 [Example 295] | 17 nM | –
CCOc1ccc2[nH]nc(-c3ccnc(N4CCC(OC)CC4)c3)c2c1 [Example 296] | 7.5 nM | –
CCOc1ccc2[nH]nc(-c3ccnc(N4CCCC4)c3)c2c1 [Example 297] | 7.3 nM | –
CCOc1ccc2[nH]nc(-c3ccnc(N4CCS(=O)(=O)CC4)c3)c2c1 [Example 298] | 51 nM | –
CC(C)Oc1ccc2[nH]nc(-c3ccnc(N4CCN(CCO)CC4)c3)c2c1 [Example 299] | 2 nM | –
CCCOc1ccc2[nH]nc(-c3ccnc(N4CCCCC4)c3)c2c1 [Example 300] | 31 nM | –
